Experimental data taken from a melting point compilation (Tetko et al.; mined from patent text by program, amines drawn as free bases though some values may be those of a salt).

Compared with `Cc1c(C2CCC(c3ccccc3)(N(C)C)CC2)n(CC(O)CN(C)C)c2ccccc12` (stereo not given), `COC(=O)C1=C(C)NC(C)=C(C(=O)OC)C1c1cccc(NC(=NC#N)N(C)CCCN2CCC(c3ccccc3)CC2)c1` is higher in melting point: 54 to 57 °C for the first, 135 to 145 °C for the second.

First: COc1ccc([N+](=O)[O-])cc1CN1CCC(=O)C(C(c2ccccc2)c2ccccc2)C1 (stereo not given)
Second: COc1ccc(Cl)cc1C(=O)N(CCCC(=O)O)C(c1ccccc1)c1ccccc1
The melting point of the first is lower: 119 to 120 °C for the first, 176 to 178 °C for the second.

First: CC(C)(C)c1cccc2c1OC(CNC(=O)OCc1ccccc1)C2 (stereo not given)
Second: CC(=O)c1cc(OCc2ccccc2)cc(NC(=O)C(C)(C)Br)c1O
The melting point of the first is lower: 73 to 76 °C for the first, 88 to 90 °C for the second.

Compared with `CCCOc1nn(Cc2ccc(OCc3nc(-c4ccccc4)oc3C)cc2)cc1CCC(=O)O`, `Cn1c(COc2ccc(Cn3cc(CCC(=O)O)c(-c4ccccc4)n3)cc2)nc2ccccc21` is higher in melting point: 108 to 109 °C for the first, 225 to 226 °C for the second.

Compared with `COc1ccc(C2CCC(=O)CC2=O)cc1` (stereo not given), `COCC1CN(c2ccc3cc(OCC4CC4)ccc3c2)C(=O)O1` (stereo not given) is lower in melting point: 150 to 151 °C for the first, 119 to 120 °C for the second.

First: COC(=O)c1c(CNC(=O)c2ccc(C(=O)O)cc2)ccc2c1C(C)(C)CCC2(C)C
Second: O=C(NO)c1ccc(CNC(=O)c2[nH]c(-c3ccccc3)cc2-c2ccc([N+](=O)[O-])cc2)cc1
The melting point of the first is lower: 95 to 100 °C for the first, 179 to 180 °C for the second.

Compared with `O=c1c(Cc2ccc(-c3ccccc3)cc2)coc2cc(OS(=O)(=O)C(F)(F)F)ccc12`, `COc1cc(F)c(-c2ccc3nc(C(=O)NC(Cc4ccc(OCc5ccccc5)cc4)C(=O)O)cn3c2)c(F)c1` (stereo not given) is higher in melting point: 110 °C for the first, 219 °C for the second.

Compared with `CC1COc2c(N3CCN(C#N)CC3NC(=N)N)c(F)cc3c(=O)c(C(=O)O)cn1c23` (stereo not given), `CNC1(C)CN(c2nc3c(cc2F)c(=O)c(C(=O)O)cn3C(C)(C)C)C1` is higher in melting point: 298 to 300 °C for the first, over 300 °C for the second.

First: COc1c(C)c(C)cc(C)c1C(O)(c1ccc(F)cc1)C(C)C (stereo not given)
Second: CC1=CC(C)(C)Cc2c1nc(C(C)C)c(CO)c2-c1ccc(F)cc1
The melting point of the first is lower: 102 to 103 °C for the first, 112 to 114 °C for the second.

Compared with `CCOC(=O)c1cnc2n(c1=O)C(C)CCC2C(=S)NC` (stereo not given), `CCOC(=O)c1ncc2c(c1CBr)c1ccccc1n2C(C)=O` is lower in melting point: 199 to 200 °C for the first, 188 to 189 °C for the second.

Compared with `CCCCc1cc2c3n(ccc-2n1)CC(C)=N3`, `CCCCCNc1nc(N(C)Cc2ccccc2)c2ncn(CC(=O)O)c2n1` is lower in melting point: 162 °C for the first, 134 to 142 °C for the second.

First: OCc1ccc(-c2ccc(-c3cn([C@H]4CN5CCC4CC5)nn3)s2)cc1
Second: FC(F)(F)c1ccc(C2=CCC(N3CCN(Cc4ccccc4)CC3)CC2)cc1 (stereo not given)
The melting point of the first is higher: 253 °C for the first, 115 to 116 °C for the second.

First: CNS(=O)(=O)N=C(NC(=O)OC)C(C)C
Second: CC(=O)N[C@@H]1[C@H](O)CC(C(=O)O)=C[C@H]1OC(C)C
The melting point of the first is higher: 194 to 199 °C for the first, 64 to 65 °C for the second.

First: CC1(O)CCC2(C)C(CCC3C2CCC2(C)C(c4cc(CO)no4)CCC32)C1 (stereo not given)
Second: COC(OC)[C@@H]1CCCN1C(=O)[C@@H]1CCCN1C(=O)C[C@H]1CCc2ccccc2C1
The melting point of the first is higher: 192 to 193 °C for the first, 103 to 106 °C for the second.

Compared with `N#CCOc1nsc2ccc(-n3c(=O)cc(C(F)(F)F)[nH]c3=O)cc12`, `N#Cc1cc(C(F)(F)F)cc(C(=O)Nc2ccc(Cl)c(Cl)c2)c1N1CCCCC1` is lower in melting point: 254 to 258 °C for the first, 175 °C for the second.

First: O=S1(=O)NCc2ccccc2O1
Second: CNC(=O)C#Cc1ccccc1C
The melting point of the first is higher: 89 to 90 °C for the first, 52 to 55 °C for the second.

First: O=C(N1CCN(c2ccncc2Cl)CC1)N1CCN(S(=O)(=O)c2ccc(F)cc2)CC1
Second: Cc1ccc(S(=O)(=O)N2CCCC(CS(=O)(=O)c3ccccc3)C2)cc1 (stereo not given)
The melting point of the first is higher: 143 to 144 °C for the first, 135 to 136 °C for the second.

First: Brc1ccccc1CCn1ccccc1=NC(=NC1CCCCC1)NC1CCCCC1
Second: COCOc1c(NC(=O)N(c2ccccc2)C2CCC(NC(=O)OCc3ccccc3)CC2)cc(OC)cc1C(C)(C)C (stereo not given)
The melting point of the first is lower: 125 to 129 °C for the first, 145 to 154 °C for the second.

First: CCCC=Cc1c(C(C)C)nc(C(C)C)c(C(=O)OCC)c1-c1ccc(C)cc1
Second: CCc1cc(CNc2cccc3ccccc23)c(OC)nc1C
The melting point of the first is lower: 74 to 77 °C for the first, 82 to 83 °C for the second.

Compared with `O=C(O)CNC(=O)Nc1cccc([N+](=O)[O-])c1`, `CCOC(=O)c1cc(C(=O)OCC)cc([N+](=O)[O-])c1` is lower in melting point: 217 to 218 °C for the first, 83.5 °C for the second.

First: CCc1ccc(C(=O)Cc2ccc(Br)cc2)cc1
Second: COc1ccc(C(=O)Cc2cc(OC)cc(Br)c2OC)cc1
The melting point of the first is higher: 146 °C for the first, 91 to 93 °C for the second.

First: CC(=O)c1cnccc1-c1c(-c2ccccc2)nn2ccccc12
Second: O=C1CC(c2ccccc2)Cc2c1ccn2C(=O)c1ccccc1 (stereo not given)
The melting point of the first is higher: 159 to 161 °C for the first, 140 to 142 °C for the second.

First: O=C(c1ccccc1)c1cc([N+](=O)[O-])ccc1-n1nc(CCl)cc1CCl
Second: ClCc1coc(-c2ccc3oc(-c4ccccc4)nc3c2)n1
The melting point of the first is lower: 152 to 155 °C for the first, 194 to 195 °C for the second.

First: CN(c1cccc2cc(C3=NCC(CC(=O)O)S3)[nH]c12)S(=O)(=O)c1nccs1 (stereo not given)
Second: CC(=O)N1CCN(Cc2nnc(-c3cc4cccc(N(C)S(=O)(=O)c5cccs5)c4[nH]3)s2)CC1
The melting point of the first is lower: 121 to 123 °C for the first, 194 to 195 °C for the second.

First: CSCC(C)OC(=O)C(=C1NCCCS1)[N+](=O)[O-] (stereo not given)
Second: COC(=O)[C@@H]1CSSCC(C)(C)C(=O)N1
The melting point of the first is lower: 58 to 60 °C for the first, 87 to 89 °C for the second.

First: CCOC(=O)[C@H]1O[C@@H]1[C@H](Cc1ccccc1)NC(=O)OC(C)(C)C
Second: COc1ccc(CC(=O)NC(C)(C)C(O)c2ccccc2)cc1OC (stereo not given)
The melting point of the first is lower: 55 to 61 °C for the first, 123 to 124 °C for the second.

First: C=C1N(c2ccccc2)C(=O)OC12CCN(CCC=C(c1ccc(F)cc1)c1ccc(F)cc1)CC2
Second: c1ccc(COc2ccc(OCCN3CCN(c4ccccc4)CC3)cc2)cc1
The melting point of the first is higher: 136 to 138 °C for the first, 116 to 119 °C for the second.

First: Cc1c(O)c(C)c(CS)c(C)c1CS
Second: CCC1(C)C(=O)c2c(cc(O)c(Cl)c2Cl)C1c1ccccc1 (stereo not given)
The melting point of the first is lower: 159 °C for the first, 248 °C for the second.

First: CNCC(O)COc1ccccc1 (stereo not given)
Second: CC(=O)c1cn(Cc2ccccc2)c(=O)[nH]c1=O
The melting point of the first is lower: 74 to 77 °C for the first, 196 to 197 °C for the second.

Compared with `CON(C(=O)Cc1nc2ccc(Cl)cc2o1)c1ccccc1`, `CN(C(=O)CBr)c1ccc(Cl)cc1Cc1ccccc1` is lower in melting point: 139 °C for the first, 78 °C for the second.

First: Cc1nc(NCc2ccccc2)sc1-c1ccnc(Nc2ccc(N3CCOCC3)cc2)n1
Second: CN(c1cncnc1)c1nc(N2CCOCC2)nc(-n2c(C(F)F)nc3ccccc32)n1
The melting point of the first is lower: 180 to 183 °C for the first, 202 to 205 °C for the second.

First: CSC1C(=O)Nc2c(C(=O)c3ccc(F)cc3)cc(F)cc21 (stereo not given)
Second: O=C(N[C@H]1CCCNC1=O)c1cc(F)cc(F)c1
The melting point of the first is lower: 171 to 172 °C for the first, 198 to 199 °C for the second.

Compared with `COC(=O)C(=O)CC(=O)/C=C/c1ccc(Cl)cc1`, `C=CS(=O)(=O)c1ccc(NC(C)=O)cc1` is lower in melting point: 135 to 136 °C for the first, 122 °C for the second.

First: CC(CO)COc1ccc(C#Cc2ccc(C(=O)O)cc2)cc1C12CC3CC(CC(C3)C1)C2 (stereo not given)
Second: O=C(CC12CC3CC(CC(C3)C1)C2)Nc1ccc(O)cc1Cl
The melting point of the first is higher: 260 to 262 °C for the first, 224 to 225 °C for the second.

Compared with `CCCCC(CC)COC(=O)CSCc1cc(C(C)(C)C)c(O)c(C(C)(C)C)c1` (stereo not given), `CCCCCCCC(=O)N(C)Cc1cccc(-c2ccc(C=CC(=O)O)s2)c1` is higher in melting point: 20 °C for the first, 102 to 104 °C for the second.

First: COc1ccc(OC)c2c1C(=O)C=C(SCCCCCCO)C2=O
Second: COc1cncnc1N1CCN(CCCc2c[nH]c3ccc(CNS(C)(=O)=O)cc23)CC1C (stereo not given)
The melting point of the first is lower: 87 to 88 °C for the first, 210 to 214 °C for the second.

`O=[N+]([O-])c1ccc(-c2n[nH]c3c2Cc2ccccc2-3)cc1` and `NC(=O)Cc1ccc(N/C=C2\C(=O)Nc3ccccc32)cc1` cannot be ordered by melting point: 267 to 270 °C for the first, over 250 °C for the second.

`c1ccc(N2CCN(c3nsc4ccccc34)CC2)cc1` and `O=c1[nH]c(=O)n(CCCN2CCN(C(c3ccccc3)c3ccccc3)CC2)c2ccccc12` cannot be ordered by melting point: 260 to 262 °C for the first, 261 to 264 °C for the second.

First: COc1ccc(-n2nc(C)cc2NC2=NCCN2C(C)=O)cc1
Second: CCN(Cc1cc(Cl)ccc1OCC1CC1)c1ccc(C(N)=O)nn1
The melting point of the first is lower: 129 to 131 °C for the first, 177 to 178 °C for the second.

First: CCOc1nn(-c2c(Cl)cc(C(F)(F)F)cc2Cl)c(N)c1-c1cccc(C(F)(F)F)c1
Second: CCc1cccc(-c2cnc3[nH]cc(C(=O)C(C)(C)C)c3n2)c1
The melting point of the first is lower: 77 to 78 °C for the first, 199 to 200 °C for the second.

First: CNC(=O)NC1CCC(=O)c2sccc21 (stereo not given)
Second: CCCC(=O)OC[C@H]1O[C@@H](n2ccc(OCC)nc2=O)CS1 (relative stereo)
The melting point of the first is higher: 212 to 215 °C for the first, 59 to 61 °C for the second.

First: CCN1C(=O)C(C)(C)C(=O)N(C)c2cc(OCCCN(CCc3cccnc3)C(=O)c3ccncc3)ccc21
Second: CCOC(=O)/C(=N/OCc1ccccc1)c1ccc(OCCOc2ccc3ccccc3c2)s1
The melting point of the first is lower: 88.1 to 92.2 °C for the first, 111 to 112 °C for the second.

First: CN1CCN(C2=Nc3ccc(Cl)cc3Cn3cccc32)CC1
Second: Cn1cc(C(=O)NCc2ccc(Cl)cc2)c(=O)c2ccoc21
The melting point of the first is lower: 186 to 188 °C for the first, 197 to 205 °C for the second.

First: CCC1(c2ccc(=O)[nH]n2)CCCCC1
Second: NCc1cc(=O)[nH]c(=O)[nH]1
The melting point of the first is lower: 138 to 140 °C for the first, 295 to 297 °C for the second.

First: CCN(CC)CCC(N)=NO
Second: CCOCn1cc(Cl)c(O)cc1=O
The melting point of the first is lower: 52 to 54 °C for the first, 217 to 219 °C for the second.

Compared with `OCc1ccc(Cn2nc(OCc3ccccc3)c3ccccc32)o1`, `CN(CCN1C(=O)c2ccccc2C1=O)C(c1ccccc1)c1ccccc1` is higher in melting point: 80 to 82 °C for the first, 130 to 131 °C for the second.

Compared with `OCC1OC(n2c(Cl)nc3cc(Cl)c(F)cc32)C(O)C1O` (stereo not given), `COC(=O)c1ccc(COC2OC(CO)C(O)C(O)C2O)o1` (stereo not given) is lower in melting point: 170 to 172 °C for the first, 72 °C for the second.

First: N#Cc1c(N)nc2ccc([N+](=O)[O-])cc2c1O
Second: Brc1cncc(-c2ccccc2)c1
The melting point of the first is higher: over 360 °C for the first, 42 to 44 °C for the second.

First: CCOC(=O)C(=O)Nc1ccccc1C(=O)Nc1nnn[nH]1
Second: c1ccc(C(OC2CCN(CCCCNc3ccc4nncn4n3)CC2)c2ccccc2)cc1
The melting point of the first is higher: 231 to 232 °C for the first, 145 to 146 °C for the second.

Compared with `CC(=C1SC(=O)NC1=O)c1ccc(OCCOc2c(-c3ccc(F)c(F)c3)n(C)c3cc(Cl)ccc3c2=O)cc1`, `CC(C)(C)OC(=O)C(Cl)=CC1C(C(=O)O)C1(C)C` (stereo not given) is lower in melting point: 296 to 298 °C for the first, 65 °C for the second.
